According to US9555013B2, “Modulation of fibroblast activity” (The University of Leicester, priority 2008, dated 2017):
“Also recorded” adds a separate entry of the source.

Key:
[1] = test system: full-thickness 6 mm excisional wounds; experiment: Murine excisional wound model with immunohistochemistry; settings: for murine wound closure (wound area): FIG. 3, 0.1% in 100 μl hydroactive gel, topical, daily
Description: FVB/NJ (β2-AR+/+) mice, were purchased from The Jackson laboratory (Bar Harbor, Me.). All animals used in the study were females between 8-12 weeks of age. β2-AR+/+ mice were anaesthetized by intraperitoneal injection of ketamine (100 mg/kg)/xylazine (10 mg/kg) (Pfizer). Back skin was shaved and two circular full-thickness 6 mm excisional wounds were created 2 cm apart, in the centre of the back, using a sterile 6 mm biopsy punch (SMS Inc.). […] Each mouse was housed separately after wounding until wound harvest. Wounds were left uncovered and digitally photographed, daily, to determine wound contraction over time. Wounds were harvested at days 3 and 5 post-wounding by carefully applying an 8 mm punch (SMS Inc.) around the original wound site and lightly pressing to form an outline on the skin. Scissors were then used to remove the wound site without damaging the delicate wound bed.
For histological analysis the wounds were fixed in an IHC zinc fixative (BD Biosciences). The zinc-fixed biopsies were bisected to ensure that sections were taken from the centre of the wound, dehydrated through an ethanol xylene series, and embedded in paraffin.
Specimens that were damaged in the histological process or otherwise non-interpretable were excluded from the study. Wound closure was quantified by measuring the wound area of each wound from the digital pictures taken every day with Image J, National Institutes of Health website. Images of the smooth muscle-alpha actin (SMA)-stained wounds were captured at 2× magnification on a Nikon SMZ-U upright microscope with Nikon ACT-1 software (as shown in FIG. 4). Image J was used to determine the area of SMA staining in each wound to calculate the mean area of SMA staining in each group (as shown in FIG. 5). Images of the collagen III stained wounds were captured at 20× magnification on a Nikon Eclipse 2000U inverted microscope with NIS-Elements software (as shown in FIG. 6). The intensity of collagen III staining was graded on a scale of 0-6, no staining receiving a score of 0 and the darkest staining receiving a score of 6 (as shown in FIG. 7). The staining of each wound was scored in a double-blind manner and the mean staining intensity was calculated for each group.

Human dermal fibroblasts [2] = experiment: Tethered (anchored) collagen gel model of wounded dermis; type: cell-based; settings: 10 μM, 4 days incubation; for collagen I staining in fibroblasts released from collagen gels: FIG. 8B; for smooth muscle alpha actin staining in fibroblasts released from collagen gels: FIG. 8D
Description: 50% collagen I gels were seeded with 30,000 cells per ml in the absence or presence of a β2-AR agonist or a β2-AR antagonist.

dermal fibroblasts = experiment: Floating collagen gel contraction assay; type: cell-based; settings: FIG. 2; 10 nM
Description: The individual solutions were prepared and cooled to 4° C. before mixing to prevent premature gelation. The final solution contained 40% (v/v) Vitrogen, 20% DMEM, 30% DMEM with Hepes buffer, and 10% calf serum. Cells were incubated with the appropriate drug concentration for 30 minutes at 37° C. and added to the collagen gel mix just before gel casting at the concentration of 30,000 per ml. The lattices were cast, with 1.7 ml of the final solution per dish, in 35 mm bacteriologic dishes (Falcon Labware, BD Biosciences), to which fibroblasts poorly adhere. The mixture gelled within 30 minutes upon incubation at 37° C. in a humidified atmosphere of 95 percent air and 5 percent CO2.
To determine the effect of β2-AR antagonists on floating gel contraction (as shown in FIG. 2), lattices were detached from the sides of the dishes after 2 hours by rimming the edges of the dishes using a sterile […] and gently shaking the dishes until the gels slid freely. Lattice retraction was measured every day by placing the dishes over a flat ruler on a black background. To determine the effect of β2-AR agonists and antagonists on proliferation of cells in a model of the wound dermis, the gels remained anchored to the side of the dish (as shown in FIG. 8).

Human dermal fibroblasts [3] = experiment: Secretion of TGF-β1, TGF-β2, TGF-β3 from dermal fibroblasts (ELISA); type: cell-based; settings: FIG. 9
Description: (§1) Human dermal fibroblasts (FIGS. 9 and 15) or human neutrophils (VEGF only) (FIG. 15) were seeded into 6-well plates and grown to 60% confluence in FM. […] The supernatants were prepared and assayed using ELISA kits for TGF-β1, TGF-β2, 15 TGF-β3 and VEGF (R & D systems) following the Manufacturer's instructions.

Human dermal fibroblasts [4] = experiment: Secretion of VEGF from dermal fibroblasts (ELISA); type: cell-based; settings: FIG. 15; after 48 hours; vs control
Description: as §1

human neutrophils = experiment: Secretion of VEGF from neutrophils (ELISA); type: cell-based; settings: FIG. 15; after 48 hours; vs control
Description: as §1

Cc1ccc(OCC(O)C(C)NC(C)C)c2c1CCC2 (stereo not drawn) [ICI 118,551]
murine wound closure (wound area) [1]: enhances; also recorded: acceleration
smooth muscle α-actin staining / expressing cells in the wound dermis ([1]; FIGS. 4 and 5, 5 days post wounding, 0.1% topical daily, vs controls): increase
collagen III deposition (staining) in the wound dermis ([1]; FIGS. 6 and 7, 5 days post wounding, 0.1% topical daily, vs controls): increase
rigidity of human dermal fibroblast-seeded collagen gels (Human dermal fibroblasts [2]; FIG. 8A): increases
collagen I staining in fibroblasts released from collagen gels (Human dermal fibroblasts [2]): increases
smooth muscle alpha actin staining in fibroblasts released from collagen gels (Human dermal fibroblasts [2]): increases
dermal fibroblast-mediated floating collagen gel contraction (dermal fibroblasts): enhance
increase in TGF-β1 levels (Human dermal fibroblasts [3]; 10 μM, 24 hours, vs control): 3 fold
increase in amount of TGF-β3 secreted (Human dermal fibroblasts [3]; 10 μM, 24 hours, vs control): no effect
increase in TGFβ2 levels (Human dermal fibroblasts [3]; 10 μM, after 6 hours, vs control): 1.6 fold
increase in TGF-β2 levels (Human dermal fibroblasts [3]; time given as 24 hours, not stated): 1.6 fold

COc1ccc(CC(C)NCC(O)c2ccc(O)c(NC=O)c2)cc1 (stereo not drawn) [formotorol]
amount of VEGF secreted from human dermal fibroblasts (Human dermal fibroblasts [4]): decrease

CC(C)NCC(O)c1ccc(O)c(O)c1 (stereo not drawn) [isoproterenol]
amount of VEGF secreted from human dermal fibroblasts (Human dermal fibroblasts [4]): decrease
amount of VEGF secreted from human neutrophils (human neutrophils): decrease

CC(C)(C)NCC(O)c1ccc(O)c(CO)c1 (stereo not drawn) [salbutamol]
murine wound closure (wound area) [1]: delayed
amount of VEGF secreted from human dermal fibroblasts (Human dermal fibroblasts [4]): decrease
collagen I staining in fibroblasts released from collagen gels (Human dermal fibroblasts [2]): decreases
human dermal fibroblast proliferation in collagen gels (Human dermal fibroblasts [2]; FIG. 8C): decreases
smooth muscle alpha actin staining in fibroblasts released from collagen gels (Human dermal fibroblasts [2]): decreases
decrease in amount of TGF-β1 secreted (Human dermal fibroblasts [3]; 10 μM, 24 hours, vs control): 4 fold
increase in amount of TGF-β3 secreted (Human dermal fibroblasts [3]; 10 μM, 24 hours, vs control): 5 fold
decrease in amount of secreted TGFβ1 (Human dermal fibroblasts [3]; 10 μM, after 24 hours, vs control): 74%
amount of VEGF secreted from human neutrophils (human neutrophils): decrease

OCc1cc(C(O)CNCCCCCCOCCCCc2ccccc2)ccc1O (stereo not drawn) [salmeterol]
amount of VEGF secreted from human dermal fibroblasts (Human dermal fibroblasts [4]): decrease
amount of VEGF secreted from human neutrophils (human neutrophils): decrease

CC(C)(C)NC[C@H](O)COc1nsnc1N1CCOCC1 [timolol]
amount of VEGF secreted from human dermal fibroblasts (Human dermal fibroblasts [4]): increase
amount of VEGF secreted from human neutrophils (human neutrophils): increase
